Assay results as given in patent US20050170004A1, “Nanoparticles for drug delivery” (priority 2003, published 2005).

Columns and labels:
[1] = system: spleen cells of mice; assay: Immunologic activity ex-vivo in mice: cytokine secretion from splenocytes activated with GA RS (ELISA); conditions: mice fed daily 250 μg GA equivalent; throughout the test period
Experimental: The ability of GA-Wax-PVP to elicit an immune response with a similar cytokine pattern as glatiramer acetate solution was tested in an ex-vivo model in mice. The study was conducted over a period of 10 days. Mice were fed daily with GA reference standard (GA RS, 250 μg), GA-Wax-PVP (amount equivalent to 250 μg GA) or Wax-PVP as negative control (similar volume and weight of particles as GA-Wax-PVP). During the study period, subsets of animals in each treatment group were sacrificed on days 3, 6 and 10. Spleens were excised and primary cell cultures were prepared. The effect of the treatment was tested by in-vitro activation of splenocytes with GA RS. The response of the cells to the challenge is a measure of previous exposure to GA. Comparing the immune response of the mice fed GA-Wax-PVP to those fed GA RS gives a measure of the relative exposure to GA that each treatment provided. T-cell response was monitored by detection of cytokines secreted from activated cells by ELISA analysis. The levels of IL-2, TGF-β, IL-4, IL-5, IL-10 and IFN-γ were examined.

[2] = system: pancreatin; assay: Protection from enzymatic degradation by pancreatin; format: in vitro ADME; conditions: pancreatin:GA 1:10, 37° C., phosphate buffer pH 6.8
Experimental: The enzymatic degradation of free GA in solution versus GA in the nano suspension (˜50% bound to the nanoparticles) and versus GA bound to the nanoparticles (˜100% bound) was studied using pancreatin. The GA bound to the nanoparticles was prepared by collecting fractions from the void volume of the Sephadex column as described in Example 1 and pooling the samples. Pancreatin is a mixture of pancreatic proteases consisting of trypsin and chymotrypsins.
Pancreatin 3.5 mg was dissolved in 10 ml of 0.05M phosphate buffer pH=6.8. Free GA, GA in nano suspension, or fully bound GA, 35 mg as GA, was dissolved or suspended in 10 ml of 0.05M phosphate buffer pH=6.8. 1 ml of the pancreatin solution and 1 ml of the GA solution or suspension were mixed (the ratio of pancreatin to GA was fixed at 1:10) and held at 37° C. At fixed time points the enzymatic reaction was stopped by adding 0.4 ml of 1N HCl. The residual GA content of the mixture was determined by the HPLC method described in Example 1.

[3] = system: multiple sclerosis; conditions: cited from earlier work
[4] = system: EAE in the Lewis rat model; assay: Efficacy in rat experimental autoimmune encephalomyelitis (EAE); format: in vivo; conditions: for % of inhibition vs. DDW: inhibition of group mean score
Excerpt: In this experiment the goal was to reduce experimental autoimmune encephalomyelitis (EAE) induced clinical signs in the Lewis rat model. Lewis (LEW) rats are highly susceptible to EAE induced with guinea pig spinal cord homogenate (GPSCH) emulsified in modified complete Freund's adjuvant (CFA). […] Decreased signs of EAE in rats with test materials administered orally during the study is considered a protective effect set forth by the experimental design.
The animal were induced with the disease by subcutaneous injection of GPSCH emulsion into both hind paws on day 1.
Initiation of scoring of rats for EAE clinical signs started on day 9. The treatment groups were blinded to the scorer. The treatments or control treatments were started on day 1 and administered daily to day 22. Treatments were administered by oral gavage at a dose and frequency described in Table 2.
There were ten rats in each group.
The animals were accessed daily for EAE clinical signs as described in Table 3.
The number of sick animals in each group were assessed. The day of onset of the symptoms, the duration of days of the symptoms and the number of animals dying were noted and the percentages calculated.
The maximal scores of each of the animals in each group were summed. The mean maximal score of the group was calculated as follows: […]
Σ Maximal score of each rat/number of rats in the group.
The scores of each of the animals in the group were summed and the mean score per day was calculated. The group mean score was calculated as follows: • Σ Total score of each rat per day/number of rats in the group. Results

[5] = daily oral gavage day 1-22, 2.5 mg GA/ml, 5 ml/kg

## Glatiramer acetate [GA]
[1]
  levels of all the cytokines examined (IL-2, TGF-β, IL-4, IL-5, IL-10, IFN-γ): similar
[2]; 0 min
  percent residual GA: 100.0 +/− 0.0%
[2]; 1 min
  percent residual GA: 75.1 +/− 3.9%
[2]; 2 min
  percent residual GA: 63.4 +/− 4.8%
[2]; 3 min, listed as Free GA, 3 min
  percent residual GA: 56.3 +/− 4.7%
[2]; 3 min, listed as free GA
  percent residual GA: 56%
[2]; 6 min
  percent residual GA: 47.1 +/− 4.4%
[3]; 20 mg subcutaneous daily injection
  clinical benefits for MS patients: extended clinical benefits
[3]; literature review
  burden of disease lesions in magnetic resonance imaging measures: significantly reduce
  relapse rate of multiple sclerosis: significantly reduce
[4]; EAE clinical score 0-6
  Group Mean Score: 0.67 ± 0.4
  Mean Maximal Score: 2.2 ± 1.1
[4]; [5]
  Incidence %: 89%
  Incidence Total N: 8/9
  Mean Disease Duration: 3.2 ± 1.6 days
  Mean Onset: 13.0 ± 2.5 days
  Mortality %: 0%
  Mortality Total N: 0/10
[4]; daily oral gavage day 1-22, 2.5 mg GA/ml, 5 ml/kg, listed as Glatiramer acetate oral solution
  Incidence Total N: eight of nine
[4]; day 9, EAE clinical score 0-6
  Daily Mean Score: 0.0
[4]; day 10, EAE clinical score 0-6
  Daily Mean Score: 0.0
[4]; day 11, EAE clinical score 0-6
  Daily Mean Score: 0.2
[4]; day 12, EAE clinical score 0-6
  Daily Mean Score: 1.3
[4]; day 13, EAE clinical score 0-6
  Daily Mean Score: 2.0
[4]; day 14, EAE clinical score 0-6
  Daily Mean Score: 1.8
[4]; day 15, EAE clinical score 0-6
  Daily Mean Score: 1.2
[4]; day 16, EAE clinical score 0-6
  Daily Mean Score: 0.1
[4]; day 17, EAE clinical score 0-6
  Daily Mean Score: 0.0
[4]; day 18, EAE clinical score 0-6
  Daily Mean Score: 0.0
[4]; days 9-18
  AUC of daily mean score: 6.6
[4]
  % of inhibition vs. DDW: 38%
[4]; listed as glatiramer acetate oral solution
  % of inhibition vs. DDW: 38%
[4]; oral administration, in words
  effect on disease severity of EAE (conclusion): inhibit the disease severity of EAE in rats
